Our source for the CC50 and EC50 values is patent US11491148B2, “Amide derivatives useful in the treatment of HBV infection or HBV-induced diseases” (Janssen Sciences Ireland Unlimited Company, priority 2019, dated 2022).

Where a name gives a salt, the structure may show the parent alone. Read-outs that look alike come from different tables or passages of the source.

A short description of series [1]: Cytotoxicity, ATPlite cell viability (TOX-HepG2.117). The following applies: human; HepG2.117 cells, incubated for 3 days, ATPlite, mean value. Format: cell-based, human. As to the method: Cytotoxicity of the compounds was tested using HepG2 or HepG2.117 cells, incubated for 3 days in the presence of compounds. The viability of the cells was assessed using the Perkin Elmer ATPlite Luminescence Assay System.”
A general note: In ATP-based viability assays light output follows the ATP content of the culture.

Series [2] deals with HBV. Briefly: Anti-HBV activity, intracellular HBV DNA by real-time PCR (HBV-AVE-HepG2.117). To be noted: read-out: HBV-AVE-HepG2.117 EC50 (μM; mean value). Format: cell-based, Hepatitis B virus. As to the method: The anti HBV activity was measured using the HepG2.117 cell line, a stable, inducible HBV producing cell line, which replicates HBV in the absence of doxicycline (Tet-off system). The HepG2 cell line is available from ATCC®) under number HB-8065. Transfection of the HepG2 cell line can be as described in Sun and Nassal 2006 Journal of Hepatology 45 (2006) 636-645 “Stable HepG2- and Huh7-based human hepatoma cell lines for efficient regulated expression of infectious hepatitis B virus”.
For the antiviral assay, HBV replication was induced, followed by a treatment with serially diluted compound in 96-well plates. After 3 days of treatment, the antiviral activity was determined by quantification of intracellular HBV DNA using real-time PCR and an HBV specific primer set and probe.
On the technique in general: Real-time PCR tracks product formation cycle by cycle.

[3] abbreviates: Hepatitis B virus, HepG2.117, 72 h, HepG2.117 cell line, 3 days of treatment, intracellular HBV DNA, mean value.
The mark [4] stands for this setting: Hepatitis B virus, HepG2.117, 72 h.

With `C[C@H]1[C@@H](C(=O)Nc2ccc(F)c(C#N)c2)CCN1C(=O)C(=O)N[C@H](CC(F)(F)F)c1c[nH]nn1` (single isomer, unassigned) [C28R*], in series [1], the CC50 – broadly, the concentration giving 50% cytotoxicity – at 3 days was more than 50 µM. In addition, the EC50 (commonly the concentration that produces a half-maximal response) in series [2] (setting [3]) came to 0.032 µM.
Taken in the same sequence, the figures for `C[C@H]1[C@@H](C(=O)Nc2ccc(F)c(C#N)c2)CCN1C(=O)C(=O)N[C@@H](CC(F)(F)F)c1c[nH]nn1` (single isomer, unassigned) [C28S*] were more than 50 µM and 0.07 µM.
The corresponding values for `C[C@H]1[C@@H](C(=O)Nc2ccc(F)c(F)c2F)CCN1C(=O)C(=O)NC1(c2c[nH]nn2)CC(F)(F)C1` [C22] are more than 50 µM and 0.026 µM.
In the case of `Cc1cc(NC(=O)[C@H]2CCN(C(=O)C(=O)NC3(c4c[nH]nn4)CC(F)(F)C3)C2)ccc1F` [C2, (3S)-1-[{[3,3-Difluoro-1-(1H-1,2,3-triazol-4-yl)cyclobutyl]amino}(oxo)acetyl]-N-(4-fluoro-3-methylphenyl)pyrrolidine-3-carboxamide], the CC50 at 3 days in series [1] is more than 50 µM. Besides, the half-maximal effective concentration (EC50) in series [2] (setting [3]) amounted to 0.079 µM.
In series [1], `C[C@H]1C[C@H](C(=O)Nc2ccc(F)c(C#N)c2)CN1C(=O)C(=O)NC1(c2c[nH]nn2)CC(F)(F)C1` [C13] came in with a CC50 at 3 days of more than 50 µM. Also, in series [2] (setting [3]), the 50% effective concentration (EC50) turned out to be 0.061 µM.
As for `C[C@H]1[C@@H](C(=O)Nc2ccc(F)c(C(F)(F)F)c2)CCN1C(=O)C(=O)N[C@H](CC(F)(F)F)c1c[nH]nn1` (single isomer, unassigned) [C30R*], the 50% cytotoxic concentration (CC50) at 3 days in series [1] was more than 50 µM. Besides, the EC50 in series [2] (setting [3]) is 0.037 µM.
Taken in the same sequence, the figures for `C[C@H]1CN(C(=O)C(=O)NC2(c3c[nH]nn3)CC(F)(F)C2)C[C@H]1C(=O)Nc1cc(F)c(F)c(F)c1` [C10] were more than 50 µM and 0.578 µM.
Turning to `C[C@H]1[C@@H](C(=O)Nc2cc(F)c(F)c(F)c2)CCN1C(=O)C(=O)N[C@](C)(CC(F)F)c1c[nH]nn1` (single isomer, unassigned) [C33R*], in series [1], the CC50 at 3 days was more than 50 µM. Besides, the concentration for a half-maximal effect (EC50) in series [2] (setting [3]) stood at 0.034 µM.
`C[C@H]1[C@@H](C(=O)Nc2cc(F)c(F)c(F)c2)CCN1C(=O)C(=O)N[C@@H](CC(F)(F)F)c1c[nH]nn1` (single isomer, unassigned) [C29S*] returned a half-maximal cytotoxic concentration (CC50) at 3 days in series [1] of more than 50 µM. The EC50 in series [2] (setting [3]) is 0.042 µM.
The corresponding values for `C[C@H]1[C@@H](C(=O)Nc2ccc(Cl)c(Cl)c2)CCN1C(=O)C(=O)N[C@H](CC(F)(F)F)c1c[nH]nn1` (single isomer, unassigned) [C25R*] are 25.7 µM and 0.017 µM.
`C[C@H]1[C@@H](C(=O)Nc2cc(F)c(F)c(F)c2)CCN1C(=O)C(=O)NC1(c2c[nH]nn2)CC(F)(F)C1` [C3, (2S,3S)-1-[{[3,3-Difluoro-1-(1H-1,2,3-triazol-4-yl)cyclobutyl]amino}(oxo)acetyl]-2-methyl-N-(3,4,5-trifluorophenyl)pyrrolidine-3-carboxamide] came in with a CC50 at 3 days in series [1] of more than 50 µM. For the same compound, in series [2] (setting [4]), the EC50 was determined as 0.011 µM.
In series [1], `C[C@H]1C[C@H](C(=O)Nc2cc(F)c(F)c(F)c2)CN1C(=O)C(=O)NC1(c2c[nH]nn2)CC(F)(F)C1` [C19] came in with a CC50 at 3 days of more than 50 µM. The EC50 in series [2] (setting [3]) was 0.019 µM.
The corresponding values for `C[C@H]1[C@@H](C(=O)Nc2ccc(F)c(C(F)F)c2F)CCN1C(=O)C(=O)NC1(c2c[nH]nn2)CC(F)(F)C1` [C14] are more than 50 µM and 0.019 µM.
Taken in the same sequence, the figures for `N#Cc1cc(NC(=O)[C@H]2CCN(C(=O)C(=O)NC3(c4c[nH]nn4)CC(F)(F)C3)C2)ccc1F` [C1, (3S)—N-(3-Cyano-4-fluorophenyl)-1-[{[3,3-difluoro-1-(1H-1,2,3-triazol-4-yl)cyclobutyl]amino}(oxo)acetyl]pyrrolidine-3-carboxamide] were more than 50 µM and 0.15 µM.
Taken in the same sequence, the figures for `O=C(NC1(c2c[nH]nn2)CC(F)(F)C1)C(=O)N1CC[C@H](C(=O)Nc2ccnc(Cl)c2)C1` [C11] were more than 50 µM and 1.5 µM.
As to `C[C@H]1[C@@H](C(=O)Nc2ccc(F)c(Cl)c2)CCN1C(=O)C(=O)N[C@H](CC(F)(F)F)c1c[nH]nn1` (single isomer, unassigned) [C34R*], the CC50 at 3 days in series [1] is more than 50 µM. Also, the concentration for a half-maximal effect (EC50) in series [2] (setting [3]) was 0.003 µM.
The corresponding values for `C[C@H]1C[C@H](C(=O)Nc2cc(F)c(F)c(F)c2)[C@H](C)N1C(=O)C(=O)NC1(c2c[nH]nn2)CC(F)(F)C1` [C35] are more than 50 µM and 0.011 µM.
The corresponding values for `C[C@H]1[C@@H](C(=O)Nc2ccc(Cl)c(Cl)c2)CCN1C(=O)C(=O)NC1(c2c[nH]nn2)CC(F)(F)C1` [C15] are 35.2 µM and 0.014 µM.
Take `C[C@H]1[C@@H](C(=O)Nc2cc(F)c(F)c(Cl)c2)CCN1C(=O)C(=O)N[C@H](CC(F)(F)F)c1c[nH]nn1` (single isomer, unassigned) [C32R*]: in series [1], the CC50 at 3 days is more than 50 µM. Also, the EC50 in series [2] (setting [3]) is 0.007 µM.
Taken in the same sequence, the figures for `C[C@H]1[C@@H](C(=O)Nc2ccc(Cl)c(Cl)c2)CCN1C(=O)C(=O)N[C@@H](CC(F)(F)F)c1c[nH]nn1` (single isomer, unassigned) [C25S*] were more than 50 µM and 0.074 µM.
Taken in the same sequence, the figures for `C[C@H]1[C@@H](C(=O)Nc2cc(F)c(F)c(F)c2)CCN1C(=O)C(=O)N[C@]1(c2c[nH]nn2)C[C@@H](C(F)F)C1` [C39t] were more than 50 µM and 0.033 µM.
The corresponding values for `Cc1[nH]nnc1C1(NC(=O)C(=O)N2CC[C@H](C(=O)Nc3cc(F)c(F)c(F)c3)[C@@H]2C)CC(F)(F)C1` [C38] are more than 50 µM and 0.012 µM.
In series [1], `C[C@H]1[C@@H](C(=O)Nc2cc(F)c(F)c(Br)c2)CCN1C(=O)C(=O)NC1(c2c[nH]nn2)CC(F)(F)C1` [C21, (2S,3S)—N-(3-bromo-4,5-difluorophenyl)-1-(2-((3,3-difluoro-1-(1H-1,2,3-triazol-4-yl)cyclobutyl)amino)-2-oxoacetyl)-2-methylpyrrolidine-3-carboxamide] came in with a half-maximal cytotoxic concentration (CC50) at 3 days of more than 50 µM. For the same compound, the EC50 in series [2] (setting [4]) worked out at 0.012 µM.
With `C[C@H]1[C@@H](C(=O)Nc2cc(F)c(F)c(F)c2)CCN1C(=O)C(=O)N[C@@](C)(CC(F)F)c1c[nH]nn1` (single isomer, unassigned) [C33S*], the CC50 at 3 days in series [1] was more than 50 µM. The EC50 in series [2] (setting [3]) stood at 0.04 µM.
Taken in the same sequence, the figures for `O=C(NC1(c2c[nH]nn2)CC(F)(F)C1)C(=O)N1CC[C@H](C(=O)Nc2ccnc(C(F)F)c2)C1` [C12] were more than 50 µM and 1.29 µM.
Taken in the same sequence, the figures for `C[C@H]1[C@@H](C(=O)Nc2cc(F)c(F)c(Cl)c2)CCN1C(=O)C(=O)N[C@@H](CC(F)(F)F)c1c[nH]nn1` (single isomer, unassigned) [C32S*] were more than 50 µM and 0.031 µM.
Taken in the same sequence, the figures for `Cc1cc(NC(=O)[C@H]2CCN(C(=O)C(=O)NC3(c4c[nH]nn4)CC(F)(F)C3)[C@H]2C)cc(F)c1F` [C27] were more than 50 µM and 0.012 µM.
For the compound `C[C@H]1[C@@H](C(=O)Nc2cc(F)c(F)c(F)c2)CCN1C(=O)C(=O)N[C@]1(c2c[nH]nn2)C[C@H](C(F)F)C1` [C39c], the CC50 at 3 days in series [1] is more than 50 µM. Also, the EC50 in series [2] (setting [3]) is 0.062 µM.
The corresponding values for `C[C@H]1[C@@H](C(=O)Nc2ccc(F)c(C(F)(F)F)c2)CCN1C(=O)C(=O)NC1(c2c[nH]nn2)CC(F)(F)C1` [C18] are more than 50 µM and 0.012 µM.
The corresponding values for `C[C@H]1[C@@H](C(=O)Nc2ccc(F)c(Cl)c2F)CCN1C(=O)C(=O)N[C@H](CC(F)(F)F)c1c[nH]nn1` (single isomer, unassigned) [C37R*] are more than 50 µM and 0.014 µM.
Taken in the same sequence, the figures for `O=C(NC1(c2c[nH]nn2)CC(F)(F)C1)C(=O)N1CC[C@H](C(=O)Nc2cc(F)c(F)c(Cl)c2)C1` [C8] were more than 50 µM and 0.045 µM.
`Cc1c(F)ccc(NC(=O)[C@H]2CCN(C(=O)C(=O)NC3(c4c[nH]nn4)CC(F)(F)C3)[C@H]2C)c1F` [C23] showed a half-maximal cytotoxic concentration (CC50) at 3 days in series [1] of more than 50 µM. Further, the 50% effective concentration (EC50) in series [2] (setting [3]) was 0.016 µM.
Consider `C[C@H]1[C@@H](C(=O)Nc2ccc(F)c(Cl)c2F)CCN1C(=O)C(=O)N[C@@H](CC(F)(F)F)c1c[nH]nn1` (single isomer, unassigned) [C37S*], for which the 50% cytotoxic concentration (CC50) at 3 days in series [1] is more than 50 µM. The EC50 in series [2] (setting [3]) stood at 0.043 µM.
The corresponding values for `C[C@H]1[C@@H](C(=O)Nc2ccc(F)c(Cl)c2F)CCN1C(=O)C(=O)NC1(c2c[nH]nn2)CC(F)(F)C1` [C17] are more than 50 µM and 0.01 µM.
Regarding `C[C@H]1[C@@H](C(=O)Nc2cc(F)c(F)c(Cl)c2)CCN1C(=O)C(=O)NC1(c2c[nH]nn2)CC(F)(F)C1` [C16], in series [1], the CC50 at 3 days is more than 50 µM. In addition, in series [2] (setting [3]), the EC50 is 0.006 µM.
In the case of `N#Cc1cc(NC(=O)[C@H]2CCN(C(=O)C(=O)NC3(c4c[nH]nn4)CC(F)(F)C3)C2)ccc1F` [C1•HCl, (3S)—N-(3-Cyano-4-fluorophenyl)-1-[{[3,3-difluoro-1-(1H-1,2,3-triazol-4-yl)cyclobutyl]amino}(oxo)acetyl]pyrrolidine-3-carboxamide hydrochloride], in series [2] (HepG2.117 cell line, 3 days of treatment, intracellular HBV DNA, mean value, hydrochloride), the EC50 was found to be 0.27 µM.
